From PubChem BioAssay AID330 (DTP/NCI, 2004)
Values joined by “and” are separate entries in the source; they are usually repeats but may differ in a detail not shown here. Equal entries are not always repeated. Toxic doses and inconclusive results are not listed.

Tested on: P388 leukemia ip, CD2F1 mice, survival T/C
Test: NCI In Vivo Anticancer Drug Screen. Data for tumor model P388 Leukemia (intraperitoneal) in CD2F1 (CDF1) mice
Conditions: endpoint: median survival time, higher = longer survival
How it was run: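 Mice carrying the transplanted tumor received test compound or vehicle. Survival was recorded in each group, and the value is the treated-group measurement divided by that of the vehicle-treated control group.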

[1] = dose: 100.0 mg/kg/injection, schedule: Q01DX001 (ip), vehicle: Klucel (hydroxypropylcellulose) (HPC)
[2] = dose: 200.0 mg/kg/injection, schedule: Q01DX001 (ip), vehicle: Klucel (hydroxypropylcellulose) (HPC)
[3] = dose: 400.0 mg/kg/injection, schedule: Q01DX001 (ip), vehicle: Klucel (hydroxypropylcellulose) (HPC)
[4] = dose: 25.0 mg/kg/injection, schedule: Q01DX005 (ip), vehicle: saline
[5] = dose: 12.5 mg/kg/injection, schedule: Q01DX009 (ip), vehicle: saline
[6] = dose: 50.0 mg/kg/injection, schedule: Q01DX009 (ip), vehicle: saline
[7] = dose: 100.0 mg/kg/injection, schedule: Q01DX009 (ip), vehicle: saline
[8] = dose: 60.0 mg/kg/injection, schedule: Q01DX005 (ip), vehicle: saline with Tween-80
[9] = dose: 120.0 mg/kg/injection, schedule: Q01DX005 (ip), vehicle: saline with Tween-80
[10] = dose: 240.0 mg/kg/injection, schedule: Q01DX005 (ip), vehicle: saline with Tween-80

Compound: O=C1c2cccc3c([N+](=O)[O-])ccc(c23)C(=O)N1NCCO
- T/C (dose: 12.5 mg/kg/injection, schedule: Q01DX005 (ip), vehicle: saline with Tween-80): 108 % of control
- T/C (dose: 25.0 mg/kg/injection, schedule: Q01DX005 (ip), vehicle: saline with Tween-80): 116 % of control
- T/C (dose: 50.0 mg/kg/injection, schedule: Q01DX005 (ip), vehicle: saline with Tween-80): 111 % of control and 116 % of control
- T/C (dose: 100.0 mg/kg/injection, schedule: Q01DX005 (ip), vehicle: saline with Tween-80): 114 % of control

Compound: N=C(N)c1ccc(N=Nc2cc(/C=C/c3ccccc3)ccc2O)cc1
- T/C (dose: 50.0 mg/kg/injection, schedule: Q01DX005 (ip), vehicle: Klucel (hydroxypropylcellulose) (HPC)): 110 % of control
- T/C (dose: 100.0 mg/kg/injection, schedule: Q01DX005 (ip), vehicle: Klucel (hydroxypropylcellulose) (HPC)): 92 % of control

Compound: CCCC1(CCC)CCC2C3CCC4CC(O)CCC4(C)C3CCC2(C)N1O (stereo not given)
- T/C [1]: 92 % of control
- T/C [2]: 89 % of control
- T/C [3]: 91 % of control

Compound: CNC(=O)OCc1c(COC(=O)NC)c(-c2ccc(Cl)cc2)n(C)c1-c1ccccc1
- T/C (dose: 12.5 mg/kg/injection, schedule: Q01DX009 (ip), vehicle: distilled water + Tween-80): 154 % of control
- T/C (dose: 25.0 mg/kg/injection, schedule: Q01DX009 (ip), vehicle: distilled water + Tween-80): 157 % of control and 172 % of control
- T/C (dose: 50.0 mg/kg/injection, schedule: Q01DX009 (ip), vehicle: distilled water + Tween-80): 181 % of control

Compound: CCCCCCCCCCC1(O)OC(=O)C(C)=C1C (stereo not given)
- T/C (dose: 12.5 mg/kg/injection, schedule: Q04DX003 (ip), vehicle: saline with Tween-80): 100 % of control
- T/C (dose: 25.0 mg/kg/injection, schedule: Q04DX003 (ip), vehicle: saline with Tween-80): 101 % of control
- T/C (dose: 50.0 mg/kg/injection, schedule: Q04DX003 (ip), vehicle: saline with Tween-80): 100 % of control

Compound: CC1CCC(C(C)C)C(OC(=O)c2ccc[n+](C)c2)C1 (stereo not given)
- T/C (dose: 12.5 mg/kg/injection, schedule: Q01DX005 (ip), vehicle: saline): 105 % of control
- T/C [4]: 116 % of control
- T/C (dose: 50.0 mg/kg/injection, schedule: Q01DX005 (ip), vehicle: saline): 100 % of control and 105 % of control

Compound: Cc1ccc(C(=O)NNC(O)C(F)(F)F)cc1 (stereo not given)
- T/C (dose: 100.0 mg/kg/injection, schedule: Q04DX003 (ip), vehicle: Klucel (hydroxypropylcellulose) (HPC)): 97 % of control
- T/C (dose: 200.0 mg/kg/injection, schedule: Q04DX003 (ip), vehicle: Klucel (hydroxypropylcellulose) (HPC)): 102 % of control

Compound: CC(=O)c1ccc2c(c1)N(CCCN(C)C)c1ccccc1S2
- T/C (dose: 3.12 mg/kg/injection, schedule: Q01DX009 (ip), vehicle: saline): 94 % of control and 97 % of control
- T/C (dose: 6.25 mg/kg/injection, schedule: Q01DX009 (ip), vehicle: saline): 93 % of control and 94 % of control
- T/C [5]: 103 % of control and 93 % of control
- T/C [6]: 101 % of control
- T/C [7]: 116 % of control

Compound: O=C1N(Cl)C(=O)C(c2ccc(Cl)cc2)(c2ccc(Cl)cc2)N1Cl
- T/C (dose: 12.5 mg/kg/injection, schedule: Q01DX009 (ip), vehicle: saline with Tween-80): 118 % of control
- T/C (dose: 50.0 mg/kg/injection, schedule: Q01DX009 (ip), vehicle: saline with Tween-80): 150 % of control

Compound: CCCCCCSc1nc2ccc(N=Cc3ccccc3O)cc2s1
- T/C (dose: 50.0 mg/kg/injection, schedule: Q01DX009 (ip), vehicle: Klucel (hydroxypropylcellulose) (HPC)): 94 % of control
- T/C (dose: 100.0 mg/kg/injection, schedule: Q01DX009 (ip), vehicle: Klucel (hydroxypropylcellulose) (HPC)): 87 % of control
- T/C (dose: 200.0 mg/kg/injection, schedule: Q01DX009 (ip), vehicle: Klucel (hydroxypropylcellulose) (HPC)): 90 % of control

Compound: COC(=O)c1cc(OC)c2cccnc2c1Nc1ccccc1
- T/C [8]: 102 % of control
- T/C [9]: 102 % of control
- T/C [10]: 100 % of control

Compound: CCOCCOCCOC(C)Oc1ccc(Br)cc1 (stereo not given)
- T/C [8]: 104 % of control
- T/C [9]: 100 % of control
- T/C [10]: 104 % of control

Compound: COc1cc(Cc2nnc(NN=C(C)C)[nH]c2=O)cc(OC)c1OC
- T/C (dose: 50.0 mg/kg/injection, schedule: Q01DX001 (ip), vehicle: Klucel (hydroxypropylcellulose) (HPC)): 115 % of control
- T/C [1]: 98 % of control and 100 % of control
- T/C [2]: 100 % of control and 124 % of control
- T/C [3]: 105 % of control and 116 % of control

Compound: O=S(=O)(O)c1cc(N=C=S)ccc1/C=C/c1ccc(N=C=S)cc1S(=O)(=O)O
- T/C [4]: 108 % of control and 110 % of control

Compound: CN(C)N=Nc1ccc(C(N)=O)cc1
- T/C [5]: 101 % of control and 103 % of control and 93 % of control
- T/C (dose: 25.0 mg/kg/injection, schedule: Q01DX009 (ip), vehicle: saline): 98 % of control and 99 % of control and 100 % of control
- T/C [6]: 98 % of control and 107 % of control and 91 % of control
- T/C [7]: 111 % of control and 96 % of control
